From ChEMBL document CHEMBL4002599, “Structure-based design and synthesis of imidazo[1,2-a]pyridine derivatives as novel and potent Nek2 inhibitors with in vitro and in vivo antitumor activities” (Eur J Med Chem, 2017)
Values belong to the molecule of their own block, whether it stands above or below them. The source made the active and inactive calls. The rule behind the calls is not given here.

How the values were obtained:
Mus musculus = assay: Toxicity in BALB/c nu/nu mouse assessed as body weight loss at 20 mg/kg, ip administered twice daily for 21 days; format: organism-based; conditions: in vivo
HCT-116 [1] = assay: Antitumor activity against human HCT116 cells xenografted in BALB/c nu/nu mouse assessed as tumor growth inhibition at 20 mg/kg, ip administered twice daily for 21 days; format: functional; conditions: HCT-116, ip, read-out: TGI
[2] = MRT (0 to t) in Sprague-Dawley rat at 1 mg/kg, iv administered as bolus dose by LC-MS/MS method; format: ADME, organism-based; conditions: in vivo
[3] = Half-life in Sprague-Dawley rat at 1 mg/kg, iv administered as bolus dose by LC-MS/MS method; format: ADME, organism-based; conditions: in vivo
[4] = Volume of distribution at steady state in Sprague-Dawley rat at 1 mg/kg, iv administered as bolus dose by LC-MS/MS method; format: ADME, organism-based; conditions: in vivo, read-out: Vdss
Rattus norvegicus [5] = assay: AUC (0 to infinity) in Sprague-Dawley rat at 1 mg/kg, iv administered as bolus dose by LC-MS/MS method; format: ADME, organism-based; set-up: dose 1 mg/kg, time infinity, route intravenous; conditions: in vivo
[6] = Clearance in Sprague-Dawley rat at 1 mg/kg, iv administered as bolus dose by LC-MS/MS method; format: ADME, organism-based; conditions: in vivo
Rattus norvegicus [7] = assay: AUC (0 to t) in Sprague-Dawley rat at 1 mg/kg, iv administered as bolus dose by LC-MS/MS method; format: ADME, organism-based; conditions: in vivo
HCT-116 [8] = assay: Induction of apoptosis in human HCT116 cells measured after 24 hrs by Annexin-V/PI staining based flow cytometry; format: functional, cell-based
HCT-116 [9] = assay: Antitumor activity against human HCT116 cells xenografted in BALB/c nu/nu mouse assessed as reduction in tumor volume at 20 mg/kg, ip administered twice daily for 21 days; format: functional, organism-based
HCT-116 [10] = assay: Cell cycle arrest in human HCT116 cells assessed as accumulation at G2/M phase at 0.5 to 1 uM measured after 24 hrs by propidium iodide staining based flow cytometry; format: functional
HCT-116 [11] = assay: Cell cycle arrest in human HCT116 cells assessed as G2/M phase accumulation by measuring >4N DNA content at 0.5 to 1 uM measured after 24 hrs by propidium iodide staining based flow cytometry; format: functional
MGC-803 = assay: Cytotoxicity against human MGC803 cells measured after 72 hrs by MTT assay; format: functional, cell-based; conditions: MGC-803, 72 h
[12] = target: T1, Serine/threonine-protein kinase Nek2 (Homo sapiens, UniProt P51955); assay: Inhibition of N-terminal His6-tagged full-length recombinant human NEK2 expressed in baculovirus infected sf21 cells using biotin labelled-STK-3 substrate measured after 60 mins by HTRF assay
T1 sequence (P51955 whole entry): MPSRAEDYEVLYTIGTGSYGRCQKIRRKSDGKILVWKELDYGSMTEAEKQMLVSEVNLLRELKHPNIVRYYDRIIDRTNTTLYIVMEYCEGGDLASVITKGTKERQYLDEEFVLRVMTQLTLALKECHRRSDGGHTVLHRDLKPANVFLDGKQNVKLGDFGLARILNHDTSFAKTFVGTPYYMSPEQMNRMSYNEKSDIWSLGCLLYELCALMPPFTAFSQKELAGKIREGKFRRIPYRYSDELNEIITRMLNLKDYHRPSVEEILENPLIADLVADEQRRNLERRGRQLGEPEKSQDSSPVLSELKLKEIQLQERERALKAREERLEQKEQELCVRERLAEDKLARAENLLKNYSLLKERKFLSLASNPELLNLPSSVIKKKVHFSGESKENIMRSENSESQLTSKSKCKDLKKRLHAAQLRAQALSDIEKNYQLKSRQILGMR

[13] = target: Dual specificity tyrosine-phosphorylation-regulated kinase 1A (Homo sapiens, UniProt Q13627); assay: Inhibition of DYRK1A (unknown origin)
HCT-116 [14] = assay: Induction of apoptosis in human HCT116 cells assessed as necrotic cells at 0.5 uM measured after 24 hrs by Annexin-V/PI staining based flow cytometry (reference value: 0.4%); format: functional
[15] = target: Ribosomal protein S6 kinase alpha-1 (Homo sapiens, UniProt Q15418); assay: Inhibition of RSK1 (unknown origin)
Aurora kinase A = target: T2, Aurora kinase A (Homo sapiens, UniProt O14965); assay: Inhibition of Aurora A (unknown origin)
T2 sequence (O14965 whole entry): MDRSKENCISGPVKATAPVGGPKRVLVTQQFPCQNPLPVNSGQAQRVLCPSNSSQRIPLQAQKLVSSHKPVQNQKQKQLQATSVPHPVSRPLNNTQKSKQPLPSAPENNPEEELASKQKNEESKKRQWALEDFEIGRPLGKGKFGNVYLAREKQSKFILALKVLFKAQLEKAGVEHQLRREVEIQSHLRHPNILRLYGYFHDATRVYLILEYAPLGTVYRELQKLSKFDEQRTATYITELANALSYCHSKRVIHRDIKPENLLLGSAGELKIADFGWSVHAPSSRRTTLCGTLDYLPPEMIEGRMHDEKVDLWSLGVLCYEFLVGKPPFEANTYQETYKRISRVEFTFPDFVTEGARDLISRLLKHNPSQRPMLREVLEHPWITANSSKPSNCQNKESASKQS

[16] = target: Cyclin-dependent kinase 2 (Homo sapiens, UniProt P24941); assay: Inhibition of CDK2 (unknown origin)
HCT-116 [17] = assay: Induction of apoptosis in human HCT116 cells assessed as early apoptotic cells at 0.5 uM measured after 24 hrs by Annexin-V/PI staining based flow cytometry (reference value: 4%); format: functional
[18] = target: T3, Serine/threonine-protein kinase Chk1 (Homo sapiens, UniProt O14757); assay: Inhibition of CHK1 (unknown origin)
T3 sequence (O14757 whole entry): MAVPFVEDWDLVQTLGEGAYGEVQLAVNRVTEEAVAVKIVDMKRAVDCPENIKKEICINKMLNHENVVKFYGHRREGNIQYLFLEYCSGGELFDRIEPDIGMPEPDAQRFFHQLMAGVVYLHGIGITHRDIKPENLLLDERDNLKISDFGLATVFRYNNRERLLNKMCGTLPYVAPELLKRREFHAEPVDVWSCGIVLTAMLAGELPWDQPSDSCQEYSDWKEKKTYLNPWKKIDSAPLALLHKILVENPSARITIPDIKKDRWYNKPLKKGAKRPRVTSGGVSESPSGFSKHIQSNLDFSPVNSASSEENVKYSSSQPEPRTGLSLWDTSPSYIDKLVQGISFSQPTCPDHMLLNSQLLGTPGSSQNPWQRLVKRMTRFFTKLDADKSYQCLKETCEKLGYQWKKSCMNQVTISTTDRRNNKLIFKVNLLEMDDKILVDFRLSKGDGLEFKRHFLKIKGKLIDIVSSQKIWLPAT

HCT-116 [19] = assay: Induction of apoptosis in human HCT116 cells assessed as late apoptotic cells at 0.5 uM measured after 24 hrs by Annexin-V/PI staining based flow cytometry (reference value: […]); format: functional
HCT-116 [20] = assay: Induction of apoptosis in human HCT116 cells assessed as early apoptotic cells at 1 uM measured after 24 hrs by Annexin-V/PI staining based flow cytometry (reference value: 4%); format: functional
[21] = target: Glycogen synthase kinase-3 beta (Homo sapiens, UniProt P49841); assay: Inhibition of GSK3beta (unknown origin)
HCT-116 [22] = assay: Induction of apoptosis in human HCT116 cells assessed as late apoptotic cells at 1 uM measured after 24 hrs by Annexin-V/PI staining based flow cytometry (reference value: […]); format: functional
Bel-7402 = assay: Cytotoxicity against human Bel7402 cells measured after 72 hrs by MTT assay; format: functional, cell-based; conditions: Bel-7402, 72 h
HCT-116 [23] = assay: Cytotoxicity against human HCT116 cells measured after 72 hrs by MTT assay; format: functional, cell-based; conditions: HCT-116, 72 h
[24] = target: Cyclin-dependent kinase 4 (Homo sapiens, UniProt P11802); assay: Inhibition of CDK4 (unknown origin)
[25] = target: Phosphatidylinositol 4,5-bisphosphate 3-kinase catalytic subunit alpha isoform (Homo sapiens, UniProt P42336); assay: Inhibition of PI3Kalpha (unknown origin)
[26] = target: MAP kinase-activated protein kinase 2 (Homo sapiens, UniProt P49137); assay: Inhibition of MAPKAPK2 (unknown origin)
[27] = target: Mitogen-activated protein kinase 14 (Homo sapiens, UniProt Q16539); assay: Inhibition of P38alpha (unknown origin)
[28] = target: Tyrosine-protein kinase ABL1 (Homo sapiens, UniProt P00519); assay: Inhibition of ABL (unknown origin)
[29] = target: RAC-alpha serine/threonine-protein kinase (Homo sapiens, UniProt P31749); assay: Inhibition of AKT1 (unknown origin)
HCT-116 [30] = assay: Induction of apoptosis in human HCT116 cells assessed as necrotic cells at 1 uM measured after 24 hrs by Annexin-V/PI staining based flow cytometry (reference value: 0.4%); format: functional

MAP kinase-activated protein kinase 2, sequence (P49137 whole entry): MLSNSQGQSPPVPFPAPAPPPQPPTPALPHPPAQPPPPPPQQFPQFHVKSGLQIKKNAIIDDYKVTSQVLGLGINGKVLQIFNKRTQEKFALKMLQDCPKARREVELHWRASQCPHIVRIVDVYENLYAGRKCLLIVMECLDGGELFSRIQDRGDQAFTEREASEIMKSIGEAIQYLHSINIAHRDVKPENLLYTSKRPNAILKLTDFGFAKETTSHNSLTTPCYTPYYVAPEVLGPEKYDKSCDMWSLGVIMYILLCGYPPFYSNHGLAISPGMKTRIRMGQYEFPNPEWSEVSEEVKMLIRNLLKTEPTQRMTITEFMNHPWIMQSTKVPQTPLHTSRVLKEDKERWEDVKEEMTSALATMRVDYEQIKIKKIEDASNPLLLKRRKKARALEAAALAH
RAC-alpha serine/threonine-protein kinase, sequence (P31749 whole entry): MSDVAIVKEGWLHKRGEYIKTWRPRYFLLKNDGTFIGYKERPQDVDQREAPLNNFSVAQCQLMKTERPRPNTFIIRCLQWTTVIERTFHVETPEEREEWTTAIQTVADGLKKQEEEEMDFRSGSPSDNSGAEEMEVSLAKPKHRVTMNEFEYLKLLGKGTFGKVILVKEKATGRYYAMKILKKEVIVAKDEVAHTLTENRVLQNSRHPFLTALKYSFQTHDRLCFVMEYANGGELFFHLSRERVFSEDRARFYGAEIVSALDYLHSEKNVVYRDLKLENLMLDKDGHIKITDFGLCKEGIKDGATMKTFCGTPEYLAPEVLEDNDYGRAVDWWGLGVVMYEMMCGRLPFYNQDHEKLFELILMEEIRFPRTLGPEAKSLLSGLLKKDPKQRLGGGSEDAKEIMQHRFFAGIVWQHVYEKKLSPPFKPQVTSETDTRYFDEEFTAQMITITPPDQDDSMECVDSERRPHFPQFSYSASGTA
Phosphatidylinositol 4,5-bisphosphate 3-kinase catalytic subunit alpha isoform, sequence (P42336 whole entry, canonical isoform): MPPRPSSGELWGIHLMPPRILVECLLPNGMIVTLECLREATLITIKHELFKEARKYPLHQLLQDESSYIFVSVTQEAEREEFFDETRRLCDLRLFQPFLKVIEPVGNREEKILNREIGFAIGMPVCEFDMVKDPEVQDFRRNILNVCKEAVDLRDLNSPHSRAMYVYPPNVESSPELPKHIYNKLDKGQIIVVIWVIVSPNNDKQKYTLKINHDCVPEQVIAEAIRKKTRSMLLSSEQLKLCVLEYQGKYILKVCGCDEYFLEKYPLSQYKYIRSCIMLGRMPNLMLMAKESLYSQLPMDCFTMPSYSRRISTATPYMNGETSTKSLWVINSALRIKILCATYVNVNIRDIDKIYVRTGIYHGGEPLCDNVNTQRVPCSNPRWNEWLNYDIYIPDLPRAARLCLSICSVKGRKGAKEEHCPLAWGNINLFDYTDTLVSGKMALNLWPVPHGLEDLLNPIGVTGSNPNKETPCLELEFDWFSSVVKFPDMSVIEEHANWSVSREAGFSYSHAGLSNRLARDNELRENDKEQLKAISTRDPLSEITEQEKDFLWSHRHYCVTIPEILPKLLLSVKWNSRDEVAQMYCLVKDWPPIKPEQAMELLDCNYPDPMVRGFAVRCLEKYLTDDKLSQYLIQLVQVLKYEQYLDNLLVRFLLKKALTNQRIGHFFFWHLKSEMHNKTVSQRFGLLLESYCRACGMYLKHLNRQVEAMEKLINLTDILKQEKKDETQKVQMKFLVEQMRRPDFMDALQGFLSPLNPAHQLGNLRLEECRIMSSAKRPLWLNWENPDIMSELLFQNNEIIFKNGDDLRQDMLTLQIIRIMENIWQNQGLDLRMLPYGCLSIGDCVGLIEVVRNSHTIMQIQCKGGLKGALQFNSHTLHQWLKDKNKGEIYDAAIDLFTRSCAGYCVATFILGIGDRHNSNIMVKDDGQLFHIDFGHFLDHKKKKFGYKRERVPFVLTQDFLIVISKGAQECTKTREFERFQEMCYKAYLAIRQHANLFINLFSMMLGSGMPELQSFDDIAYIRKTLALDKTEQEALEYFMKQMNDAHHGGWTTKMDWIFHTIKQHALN
Tyrosine-protein kinase ABL1, sequence (P00519 whole entry): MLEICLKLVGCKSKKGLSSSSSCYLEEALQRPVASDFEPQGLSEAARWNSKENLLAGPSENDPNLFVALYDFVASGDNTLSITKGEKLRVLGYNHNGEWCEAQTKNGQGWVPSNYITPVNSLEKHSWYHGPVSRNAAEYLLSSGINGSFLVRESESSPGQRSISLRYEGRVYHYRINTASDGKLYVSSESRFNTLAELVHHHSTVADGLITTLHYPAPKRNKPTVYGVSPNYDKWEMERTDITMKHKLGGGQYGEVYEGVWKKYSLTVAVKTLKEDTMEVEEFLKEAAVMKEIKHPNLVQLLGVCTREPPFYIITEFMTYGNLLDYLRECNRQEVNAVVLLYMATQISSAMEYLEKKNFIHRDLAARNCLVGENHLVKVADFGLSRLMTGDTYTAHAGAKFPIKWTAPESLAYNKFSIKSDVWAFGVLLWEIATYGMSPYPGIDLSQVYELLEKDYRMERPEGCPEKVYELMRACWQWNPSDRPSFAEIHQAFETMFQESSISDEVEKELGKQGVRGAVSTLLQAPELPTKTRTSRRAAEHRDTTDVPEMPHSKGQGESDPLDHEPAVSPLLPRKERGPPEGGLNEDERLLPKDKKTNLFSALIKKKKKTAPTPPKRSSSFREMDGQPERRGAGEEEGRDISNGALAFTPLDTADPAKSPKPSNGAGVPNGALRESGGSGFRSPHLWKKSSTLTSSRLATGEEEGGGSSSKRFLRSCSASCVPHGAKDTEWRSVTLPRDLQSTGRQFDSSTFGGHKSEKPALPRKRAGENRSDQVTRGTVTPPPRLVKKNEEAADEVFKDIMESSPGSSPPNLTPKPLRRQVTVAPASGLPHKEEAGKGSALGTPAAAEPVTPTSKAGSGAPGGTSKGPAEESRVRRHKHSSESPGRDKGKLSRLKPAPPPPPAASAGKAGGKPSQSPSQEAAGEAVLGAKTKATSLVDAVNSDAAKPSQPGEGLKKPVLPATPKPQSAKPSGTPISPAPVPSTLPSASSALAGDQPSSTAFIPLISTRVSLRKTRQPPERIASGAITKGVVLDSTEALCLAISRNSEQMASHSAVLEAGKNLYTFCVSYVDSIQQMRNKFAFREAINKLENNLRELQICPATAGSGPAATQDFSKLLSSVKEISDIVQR
Glycogen synthase kinase-3 beta, sequence (P49841 whole entry): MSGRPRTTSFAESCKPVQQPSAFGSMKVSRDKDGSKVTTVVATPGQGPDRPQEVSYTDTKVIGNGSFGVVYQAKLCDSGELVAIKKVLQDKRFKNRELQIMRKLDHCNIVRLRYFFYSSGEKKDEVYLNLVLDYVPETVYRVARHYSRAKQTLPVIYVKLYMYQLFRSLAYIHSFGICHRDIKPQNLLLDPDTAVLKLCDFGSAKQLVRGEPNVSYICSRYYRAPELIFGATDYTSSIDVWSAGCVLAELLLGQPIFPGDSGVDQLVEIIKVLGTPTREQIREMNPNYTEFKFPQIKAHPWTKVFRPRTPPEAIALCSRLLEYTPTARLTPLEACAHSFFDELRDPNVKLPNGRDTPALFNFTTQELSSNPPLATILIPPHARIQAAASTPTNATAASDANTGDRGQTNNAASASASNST
Cyclin-dependent kinase 4, sequence (P11802 whole entry, canonical isoform): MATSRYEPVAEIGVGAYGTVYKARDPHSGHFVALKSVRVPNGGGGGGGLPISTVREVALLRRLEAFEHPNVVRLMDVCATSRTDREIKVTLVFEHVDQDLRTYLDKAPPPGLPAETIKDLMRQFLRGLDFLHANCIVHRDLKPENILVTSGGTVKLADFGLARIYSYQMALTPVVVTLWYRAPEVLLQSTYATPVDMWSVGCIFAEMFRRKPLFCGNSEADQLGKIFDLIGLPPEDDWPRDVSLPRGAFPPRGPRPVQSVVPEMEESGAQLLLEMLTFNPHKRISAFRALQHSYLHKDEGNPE
Ribosomal protein S6 kinase alpha-1, sequence (Q15418 whole entry): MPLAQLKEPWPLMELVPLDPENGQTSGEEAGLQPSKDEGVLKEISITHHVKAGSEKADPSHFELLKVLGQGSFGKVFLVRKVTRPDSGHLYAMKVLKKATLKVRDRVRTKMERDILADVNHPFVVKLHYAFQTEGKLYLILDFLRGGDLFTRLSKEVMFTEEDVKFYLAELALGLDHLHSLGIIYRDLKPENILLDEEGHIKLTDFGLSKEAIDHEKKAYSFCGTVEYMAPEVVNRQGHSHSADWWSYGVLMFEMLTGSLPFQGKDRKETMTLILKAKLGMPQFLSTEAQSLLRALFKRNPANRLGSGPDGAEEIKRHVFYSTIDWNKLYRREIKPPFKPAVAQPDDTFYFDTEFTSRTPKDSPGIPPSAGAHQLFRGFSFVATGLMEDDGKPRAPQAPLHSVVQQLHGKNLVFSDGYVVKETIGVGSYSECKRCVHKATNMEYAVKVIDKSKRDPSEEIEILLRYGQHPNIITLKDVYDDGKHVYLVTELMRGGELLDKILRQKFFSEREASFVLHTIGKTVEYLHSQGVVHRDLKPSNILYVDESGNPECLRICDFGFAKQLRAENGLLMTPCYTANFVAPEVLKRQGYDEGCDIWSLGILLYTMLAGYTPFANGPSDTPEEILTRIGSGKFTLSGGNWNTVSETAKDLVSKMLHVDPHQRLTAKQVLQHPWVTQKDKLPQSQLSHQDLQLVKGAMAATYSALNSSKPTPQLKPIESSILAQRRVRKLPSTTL
Mitogen-activated protein kinase 14, sequence (Q16539 whole entry): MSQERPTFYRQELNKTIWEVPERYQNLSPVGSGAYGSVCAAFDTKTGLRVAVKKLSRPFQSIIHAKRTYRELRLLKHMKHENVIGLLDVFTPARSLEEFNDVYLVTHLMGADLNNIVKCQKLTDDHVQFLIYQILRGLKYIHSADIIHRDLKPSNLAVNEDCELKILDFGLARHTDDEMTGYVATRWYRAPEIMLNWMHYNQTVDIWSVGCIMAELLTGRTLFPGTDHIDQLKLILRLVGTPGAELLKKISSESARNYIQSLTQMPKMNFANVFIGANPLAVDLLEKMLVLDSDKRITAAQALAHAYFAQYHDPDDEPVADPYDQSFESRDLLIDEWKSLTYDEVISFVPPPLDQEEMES

SMILES: CN(C)CCn1cc(-c2ccn3c(-c4ccc(C(N)=O)c(OCc5cccc(F)c5)c4)cnc3c2)cn1.O=C(O)CCC(=O)O.O=C(O)CCC(=O)O
Activity (Mus musculus): Non-Toxic
inhibition in vivo at 20 mg/kg (HCT-116 [1]): 36%

SMILES: CN(C)CCn1cc(-c2ccn3c(-c4ccc(C(N)=O)c(OCc5cccc(F)c5)c4)cnc3c2)cn1 [listing 1 of 2 here]
Activity (HCT-116 [8]): Dose-dependent effect
Activity (HCT-116 [9]): Active
Activity (HCT-116 [10]): Active
Activity (HCT-116 [11]): Active

SMILES: COc1cc(-c2cnc3cc(N4CCN(C)CC4)ccn23)ccc1C(N)=O
IC50 (MGC-803): > 30000 nM
IC50 [12]: 19300 nM

The next lines start with results.

MRT last [2]: 1.68 h
half-life [3]: 2.42 h
Vd [4]: 4.06 L/kg
AUC (Rattus norvegicus [5]): 405 ng·h/mL
clearance [6]: 42.4 mL/min/kg
AUCt (Rattus norvegicus [7]): 386 ng·h/mL
SMILES: CN(C)CCn1cc(-c2ccn3c(-c4ccc(C(N)=O)c(OCc5ccccc5)c4)cnc3c2)cn1

IC50 [12]: 2170 nM
SMILES: CC(Oc1cc(-c2cnc3cc(N4CCN(C)CC4)ccn23)ccc1C(N)=O)c1ccccc1C(F)(F)F (centres undefined)
IC50 (MGC-803): 12300 nM

IC50 [13]: 6.5 nM
IC50 [15]: 5.4 nM
IC50 (Aurora kinase A): 5300 nM
IC50 [16]: 370 nM
IC50 [18]: 57 nM
MRT last [2]: 1.3 h
IC50 [21]: 91 nM
half-life [3]: 1.72 h
IC50 [24]: 441 nM
Vd [4]: 2.53 L/kg
IC50 [25]: 6230 nM
IC50 [26]: > 10000 nM
AUC (Rattus norvegicus [5]): 507 ng·h/mL
IC50 [27]: > 10000 nM
clearance [6]: 33.3 mL/min/kg
IC50 [28]: 20 nM
AUCt (Rattus norvegicus [7]): 495 ng·h/mL
IC50 [12]: 1 nM
IC50 [29]: 608 nM
SMILES: CN(C)CCn1cc(-c2ccn3c(-c4ccc(C(N)=O)c(OCc5cccc(F)c5)c4)cnc3c2)cn1 [listing 2 of 2 here]
Activity (HCT-116 [14]): 2.6%
Activity (HCT-116 [17]): 21.3%
Activity (HCT-116 [19]): 20.1%
Activity (HCT-116 [20]): 27.8%
IC50 (MGC-803): 530 nM
Activity (HCT-116 [22]): 26.7%
IC50 (Bel-7402): 7130 nM
IC50 (HCT-116 [23]): 840 nM
Activity (HCT-116 [30]): 3.5%
